Laboratory results reported in publication PMC7278359, “Small molecule AX-024 reduces T cell proliferation independently of CD3ϵ/Nck1 interaction, which is governed by a domain swap in the Nck1-SH3.1 domain” (The Journal of Biological Chemistry, 2020).
“Also recorded” adds a separate entry of the source.

Tests used:
[1] = test system: dimeric Nck1-SH3.1; test: Ligand-observed NMR with dimeric Nck1-SH3.1; format: binding, human; settings: 50 μM ligand, 10 μM dimeric Nck1-SH3.1 (residues 1–61), pH 6.5, 150 mM NaCl, 27 °C
Procedure: NMR spectra were recorded on a Bruker 600-MHz Avance NEO spectrometer equipped with a cryogenic QCI probe head at 27 °C in 25 mM […], 150 mM NaCl. The Topspin 4.0 software (Bruker, Fällanden) was used for spectrometer operation and data processing. For ^1H ligand-observed measurements, a relaxation filtered pulse sequence utilizing a spinlock of 50 ms was applied. 1D spectra were acquired with 128 scans, a sweep width of 26 ppm, and an acquisition time of 2 s. 2D ^1H-^15N HSQC spectra with natural ^15N isotope abundance were recorded over 72 h with a spectral width of 16 ppm and 35 ppm in the proton and nitrogen dimensions, respectively, with 256 increments (complex) and 1000 scans per increment. A relaxation delay of 1 s was used between scans. For the DOSY measurements (reviewed in Ref. [51]), the Bruker pulse sequence ledbpgp2s with a diffusion delay of 50 ms and a gradient length of 600 μs was used. The gradient strength was varied from 5 to 95% to record 16 increments of 512 scans with a sweep width of 18 ppm and a relaxation delay of 1 s.
Samples for ligand-observed measurements were prepared in 25 mM sodium phosphate buffer, pH 6.5, 150 mM NaCl. One sample contained 50 μM AX-024, and the other contained 50 μM CD3ϵ peptide.

[2] = test system: 5-HT2B; test: Selectivity panel (Eurofins, CEREP); format: binding; settings: 10 μM AX-024, single point; human receptor; radioactive antagonist ligand
Procedure: (§1) AX-024 was submitted to a selectivity panel comprising 50 recurring off-targets, including G protein–coupled receptors, channels, transporters, and metabolic enzymes (Eurofins, CEREP).
(§2) Supplemental Table 1: SPR peptide titrations
(§3) Single point measurements at 10 μM for 50 targets in a selectivity panel.
(§4) human receptors, except for the Ca2+ channel, which is from rat. A radioactive antagonist ligand was used
(§5) for the detection. The tests were conducted by Euro fins (https://www.eurofinsdiscoveryservices.com ).

[3] = test system: Ca2+ channel (CaV1.2) (L, diltiazem site); test: Selectivity panel (Eurofins, CEREP); format: binding; settings: probe radioactive antagonist ligand, 10 μM AX-024, single point, rat Ca2+ channel
Procedure: as §1, §2, §3, §4, §5

[4] = test system: Dopamine D1; test: Selectivity panel (Eurofins, CEREP); format: binding; settings: 10 μM AX-024, single point; human receptor; radioactive antagonist ligand
Procedure: as §1, §2, §3, §4, §5

[5] = test system: α 1A adrenoreceptor; test: Selectivity panel (Eurofins, CEREP); format: binding; settings: 10 μM AX-024, single point; human receptor; radioactive antagonist ligand
Procedure: as §1, §2, §3, §4, §5

[6] = test system: Histamine H3; test: Selectivity panel (Eurofins, CEREP); format: binding; settings: 10 μM AX-024, single point; human receptor; radioactive antagonist ligand
Procedure: as §1, §2, §3, §4, §5

[7] = test system: Muscarinic M1; test: Selectivity panel (Eurofins, CEREP); format: binding; settings: 10 μM AX-024, single point; human receptor; radioactive antagonist ligand
Procedure: as §1, §2, §3, §4, §5

[8] = test system: Muscarinic M2; test: Selectivity panel (Eurofins, CEREP); format: binding; settings: 10 μM AX-024, single point; human receptor; radioactive antagonist ligand
Procedure: as §1, §2, §3, §4, §5

[9] = test system: P-Zap70 in primary T cells; test: Zap70 phosphorylation in primary T cells, flow cytometry; format: cell-based, human
Procedure: Figure 4. […] Healthy donor PBMCs were isolated rested overnight and pretreated with 20 μM AX-024 or vehicle prior to stimulation with 20 μg·ml^−1 (A) or 10 μg·ml^−1 (B) anti-CD3. The cells were gated on live cells, CD3, and CD4 for assessment of P-Zap70. Error bars, S.D.
Human PBMCs from healthy donors were prepared from 50 ml of fresh blood with Ficoll in Leucosep tubes. The tubes were centrifuged at room temperature (30 min, 800 × g) without brake. Isolated cells were washed and staved overnight. The cells were treated with AX-024 or vehicle and incubated for 1 h at 37 °C followed by further incubation on ice. 10, 25, or 50 μg·ml^−1 anti-CD3-biotin (clone OKT3, BioLegend) was added to the cells on ice for 15 min before neutravidin was added at a final concentration of 20 μg·ml^−1 for cross-linking. After stimulation for 3 min at 37 °C, cells were fixed (BD Cytofix fixation buffer) and permeabilized (TruePhos buffer, BioLegend). Staining was performed with CD3-PerCP (clone SK7, BD), CD4-BUV395 (clone SK3, BD), CD8-BV605 (clone RPAT8, BioLegend), and Zap70-PE (clone 65E4, CST). Flow cytometry and data analysis were done as described above.

[10] = test system: CD4 T cell proliferation; test: CD4 T cell proliferation by CFSE dilution, anti-CD3 stimulation; format: cell-based, human; settings: human CD3+ T cells (n = 4 donors), CFSE dilution gated on CD4, 0.2 μg·ml^−1 plate-bound anti-CD3 (OKT3), no co-stimulation, 4 days, 0.2% DMSO
Procedure: Figure 2. […] CD4 T cell proliferation was assessed upon stimulation with anti-CD3ϵ by CFSE dilution as a measure for cellular proliferation, analyzed on day 4. For rapamycin and AX-024–treated cells, the dashed line indicates control proliferation at a DMSO concentration of 0.2%. For CD3ϵ-derived peptides 11Rwt, 11R085, and 11Rscr, the dashed line indicates control proliferation at 0.3% DMSO, 0.3% PBS. 11Rwt has sequence R11-G3-[…], 11R085 R11-G3-Q(dK)[…], and 11Rscr R11-G3-[…](dK)PQP. A polyarginine tag is used to enable cell penetration of the peptides ([10]). The gray boxes indicate concentrations of compound leading to decreased cell viability. These values should be disregarded. Binding of peptides 11Rwt and 11R085, but not 11Rscr, to Nck-SH3.1 was confirmed by NMR spectroscopy (Fig. S1). Asterisks, p < 0.05 as determined by a repeated-measure one-way analysis of variance with Holm–Sidak's multiple-comparison test to DMSO/PBS. Dotted lines, mean DMSO/PBS values. Error bars, S.D.
Fresh human peripheral blood mononuclear cells (PBMCs) from healthy donors (n = 4) were prepared from buffy coats. CD3^+ T cells were isolated by immunomagnetic separation (negative selection, StemCell, lot 18A87710), carboxyfluorescein succinimidyl ester (CFSE)-labeled, resuspended in StemCell Immunocult^TM-XF T cell expansion medium, and treated with compounds or vehicle for 2 h at room temperature. The isolated CD3^+ T cells were stained for CD3, CD4, and CD8, and their purity was assessed by flow cytometry. Cells were then cultured in a 96-well flat-bottomed plate (10^5 cells/well), precoated for 1 h at 37 °C with 0.2 μg·ml^−1 plate-bound anti-CD3 (clone OKT3, BioLegend). […] Cells were cultured in the presence of AX-024, rapamycin, peptide 11Rwt, peptide 11R85, peptide 11Rscr (derived from Ref. [11]; see below for sequences), or vehicle for 4 days. At the end of culture, cells were stained for viability, and CFSE dilution was assessed by flow cytometry (with gating on CD4 versus CD8).

Compound: COc1ccc2c(c1)C(c1ccc(F)cc1)=C(CN1CCCC1)CO2.Cl [AX-024, 1-((4-(4-fluorophenyl)-6-methoxy-2H-chromen-3-yl)methyl)pyrrolidine hydrochloride]
- ligand-observed NMR, spectral change / line broadening [1]: do not show any spectral changes; also recorded: no interaction was observed
- % inhibition [2]: 80.1%
- inhibition at 10 μM [3]: 66.3%
- % inhibition [4]: 85.3%
- % inhibition [5]: 79.3%
- % inhibition [6]: 95.1%
- % inhibition [7]: 95.0%
- % inhibition [8]: 81.3%
- reduction of Zap70 phosphorylation ([9]; PBMCs from healthy donors, 20 μM AX-024 pretreatment, 20 or 10 μg·ml^−1 anti-CD3, gated on live, CD3, CD4): does not significantly reduce Zap70 phosphorylation
- reduction of Zap70 phosphorylation ([9]; different stimulation conditions, low anti-CD3, no co-stimulation): none of the conditions tested resulted in significant reduction of Zap70 phosphorylation
- inhibition of T cell proliferation [10]: inhibited T cell proliferation
